In US20250122188A1, “MODULATORS OF THE INTEGRATED STRESS PATHWAY” (Calico Life Sciences LLC, priority 2016, published 2025):

Legend:
Assay type in all cases: cell-based
[1] = system: ATF4 luciferase reporter in HEK293T cells; experiment: ATF4-Luc assay, HEK293T cells carrying the ATF4 luciferase reporter (in vitro model of VWMD); details: Homo sapiens, HEK-293T; HEK293T ATF4 luciferase reporter cells, 1 μg/mL tunicamycin, 7 hours; read-out: ATF4-Luc EC50
Experimental: (§1) In order to test exemplary compounds of the invention in a cellular context, a stable VWMD cell line was first constructed. The ATF4 reporter was prepared by fusing the human full-length ATF4 5′-UTR (NCBI Accession No. BC022088.2) in front of the firefly luciferase (FLuc) coding sequence lacking the initiator methionine as described in Sidrauski et al (eLife 2013). The construct was used to produce recombinant retroviruses using standard methods and the resulting viral supernatant was used to transduce HEK293T cells, which were then subsequently selected with puromycin to generate a stable cell line.
(§2) HEK293T cells carrying the ATF4 luciferase reporter were plated on polylysine coated 384-well plates (Greiner Bio-one) at 30,000 cells per well. Cells were treated the next day with 1 μg/mL tunicamycin and 200 nM of a compound of Formula (I) for 7 hours. Luminescence was measured using One Glo (Promega) as specified by the manufacturer. Cells were maintained in DMEM with L-glutamine supplemented with 10% heat-inactivated FBS (Gibco) and Antibiotic-Antimycotic solution (Gibco).

eIF2B mutant B1 V184 = experiment: ATF4-Luc assay, VWMD eIF2B mutant HEK293T ATF4-Fluc cells, B1 V184; details: Homo sapiens, HEK-293T
Experimental: as §1, §2
(§3) VWMD mutations were introduced into the genome of the HEK293T ATF4-Fluc stable cell lines by using Gene Art CRISPR nuclease vector with OFP Reporter kit (ThermoFisher; see Table 3 below). Guide RNAs were designed using the CRISPR Design Tool (http://crispr.mit.edu) and ligated into the CRISPR OFP Nuclease Vector. To obtain homology directed repair (HDR) incorporating VWMD point mutations in the genome, 150 bp ssDNA ultramer oligos were synthesized by Integrated DNA Technologies containing specific mutations of interest. In addition to the VWMD mutations, the ssDNA HDR templates contained a silent mutation to the PAM site of the CRISPR gRNA sequence (to avoid further Cas9 cutting) and 75 bp of homology on each side of the mutation.
(§4) HEK293T ATF4-Fluc cells were transfected with 500 ng of the CRISPR OFP Nuclease Vector and 1 μL of 10 μM ssDNA HDR template using lipofectamine 3000 (ThermoFisher) or SF Cell Line 4D-nucleofector X Kit (Lonza) according to the manufacturer's instructions. After 2-3 days of recovery, single cells were sorted for positive OFP expression on a FACS Aria II (BD Biosciences) into wells of a 96 well plate and allowed to recover for 1-2 weeks.
(§5) The resulting clones were surveyed for CRISPR editing and HDR by harvesting the genomic DNA with the PureLink Genomic DNA kit (ThermoFisher), amplifying a […] locus near the editing site, and sequencing the amplicon. […] Typical clones obtained were hemizygous for the VWMD point mutation, with one or two alleles harboring the desired mutation, and the remaining alleles knocked out (edited to produce a premature stop codon).

eIF2B mutant B3 H341Q = experiment: ATF4-Luc assay, VWMD eIF2B mutant HEK293T ATF4-Fluc cells, B3 H341Q; details: Homo sapiens, HEK-293T
Experimental: as §1, §2, §3, §4, §5

eIF2B mutant B3 I346T = experiment: ATF4-Luc assay, VWMD eIF2B mutant HEK293T ATF4-Fluc cells, B3 I346T; details: Homo sapiens, HEK-293T
Experimental: as §1, §2, §3, §4, §5

eIF2B mutant B4 R357W = experiment: ATF4-Luc assay, VWMD eIF2B mutant HEK293T ATF4-Fluc cells, B4 R357W; details: Homo sapiens, HEK-293T
Experimental: as §1, §2, §3, §4, §5

eIF2B mutant B4 R483W = experiment: ATF4-Luc assay, VWMD eIF2B mutant HEK293T ATF4-Fluc cells, B4 R483W; details: Homo sapiens, HEK-293T
Experimental: as §1, §2, §3, §4, §5

eIF2B mutant B5 R113H = experiment: ATF4-Luc assay, VWMD eIF2B mutant HEK293T ATF4-Fluc cells, B5 R113H; details: Homo sapiens, HEK-293T
Experimental: as §1, §2, §3, §4, §5

eIF2B mutant B5 R195H = experiment: ATF4-Luc assay, VWMD eIF2B mutant HEK293T ATF4-Fluc cells, B5 R195H; details: Homo sapiens, HEK-293T
Experimental: as §1, §2, §3, §4, §5

Measured: EC50

O=C(COc1ccc(Cl)c(F)c1)NC12CCC(NC(=O)COc3ccc(Cl)c(F)c3)(CC1)[C@H](O)C2 [Compound 298, N,N′-[(2R)-2-hydroxybicyclo[2.2.2]octane-1,4-diyl]bis[2-(4-chloro-3-fluorophenoxy)acetamide]]
< 10 nM: all assays above
